Assay results from patent US20240140931A1, “TRICYCLIC COMPOUNDS AND USES THEREOF” (HUTCHMED LIMITED, priority 2021, published 2024).

What was measured:
[1] = test system: pERK1/2 (Thr202/Tyr204) in Miapaca2 cells; experiment: Assay of intracellular pERK1/2 (Thr202/Tyr204) phosphorylation; assay type: cell-based; details: pERK1/2 (Thr202/Tyr204) HTRF
Description: Example 3 Assay of Intracellular pERK1/2 (Thr202/Tyr204) Phosphorylation
1. Reagents and Materials • pERK1/2 (Thr202/Tyr204) HTRF kit: Cisbio, Cat #64ERKPEH; • Cell line: Miapaca2, ATCC, CRL-1420; • OptiPlate™-384-well plate: PerkinElmer, Cat #6007299; • 96-well plate: Corning, Cat #353072; • Instrument: EnVision2104, PerkinElmer.
2. Preparation of Reaction Solutions • The test compound was dissolved in DMSO and diluted with DMSO to 600.0 μM, and the compound was further 3-fold diluted with DMSO to: 600.0, 200.0, 66.7, 22.2, 7.4, 2.5, 0.82 and 0.27 μM. Then 10 μL of the compound at different dilution concentrations was added to 190 μL of a DMEM medium to prepare a 10× test compound, wherein DMSO was at the concentration of 5% (DMSO was at the final concentration of 0.5%). • 1× cell lysis buffer: 4× cell lysis stock solution (provided by the kit) was diluted 4-fold with deionized water, and then 1% 100× blocking stock solution (provided by the kit) was added thereto. • pERK1/2 detection solution (prepared just before use): the pERK1/2 d2 antibody (provided by the kit) and pERK1/2 Cryptate antibody (provided by the kit) were diluted with the detection solution (provided by the kit) at a ratio of 1:1:38.
3. Experimental Steps • Miapaca2 cells were inoculated into a 96-well plate at a density of 10000 cells/well at 90 μL/well and cultured in a cell incubator at 5% CO2 and 37° C. overnight. • 10 μL of 10× test compound was added to the 90 μL cell culture 96-well plate; to the cell positive control well was added 10 μL of 5% DMSO culture solution; and the plate was cultured in a cell incubator at 5% CO2 and 37° C. for 2 hours. • The medium in the 96-well plate was removed; 50 μL of 1× cell lysis buffer was added to each well; the plate was placed in a microplate shaker; and lysis under shaking was carried out at 900 rpm at room temperature for 1 hour. • 16 μL of the lysis buffer in the 96-well plate was taken and transferred to a 384-well plate, and centrifugation was carried out at 1000 rpm for 30 seconds; then 4 μL of pERK1/2 detection solution was added to each well and centrifugation was carried out at 1000 rpm for 30 seconds; and the 384-well plate was sealed with a sealing membrane and incubated at 25° C. on a low-speed shaker (100 rpm) in the dark for 2 hours. • The fluorescence value (relative fluorescence units, RFU) of each well was detected on EnVision2104 (emission 1: 665 nm, emission 2: 615 nm).
wherein • the fluorescence ratio of compound well refers to the fluorescence ratio of the well containing the test compounds; • the fluorescence ratio of negative control well refers to the fluorescence ratio of the background containing the cell lysis buffer and no Miapaca2 cells; • the fluorescence ratio of positive control well refers to the fluorescence ratio of the well containing 0.5% DMSO and Miapaca2 cells.
(§1) IC50 values were calculated following formula 205: y=A+((B−A)/(1+((C/X)^D))), by using the XL-Fit 5.0 software.

[2] = biological target: Human full-length SHP2 recombinant protein (Homo sapiens (Human), UniProt Q06124); experiment: Assay of full-length SHP2 phosphatase activity; assay type: biochemical; details: DiFMUP substrate, with activating peptide
Human full-length SHP2 recombinant protein, sequence (Q06124 whole entry): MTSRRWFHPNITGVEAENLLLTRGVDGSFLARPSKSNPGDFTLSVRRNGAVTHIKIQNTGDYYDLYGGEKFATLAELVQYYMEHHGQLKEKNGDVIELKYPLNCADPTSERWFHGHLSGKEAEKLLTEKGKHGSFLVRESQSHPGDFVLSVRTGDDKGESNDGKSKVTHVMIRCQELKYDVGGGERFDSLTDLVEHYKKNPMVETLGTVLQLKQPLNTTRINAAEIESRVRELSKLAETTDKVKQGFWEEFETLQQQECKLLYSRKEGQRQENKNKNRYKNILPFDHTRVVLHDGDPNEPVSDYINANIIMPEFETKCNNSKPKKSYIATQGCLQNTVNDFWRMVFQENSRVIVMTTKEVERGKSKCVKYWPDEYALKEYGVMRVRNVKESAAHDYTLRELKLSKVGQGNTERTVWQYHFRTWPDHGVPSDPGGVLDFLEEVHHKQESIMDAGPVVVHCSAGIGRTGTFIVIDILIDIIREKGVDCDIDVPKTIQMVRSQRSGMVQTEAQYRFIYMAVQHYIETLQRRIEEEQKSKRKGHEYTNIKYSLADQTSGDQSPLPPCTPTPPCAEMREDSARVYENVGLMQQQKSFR
Description: Example 2 Assay of Full-Length SHP2 Phosphatase Activity
1. Reagents and Materials • Human full-length SHP2 recombinant protein: BPS Bioscience, Cat #79018; • SHP2 substrate DiFMUP (1 mM): BPS Bioscience, Cat #79769; • SHP2 activating peptide (100 μM): BPS Bioscience, Cat #79319-2; • DTT: Merck, Cat #DTT-RO; • 384-well plate: Corning, Cat #3575; • 96-well plate: Thermo Fisher Scientific, Cat #249952; • Instrument: EnVision 2104, PerkinElmer.
2. Preparation of Reaction Solutions
The test compound was dissolved in DMSO and diluted with DMSO to 100.0 μM, and the compound was further 3-fold diluted with DMSO to: 100.00, 33.33, 11.11, 3.70, 1.23, 0.41, 0.14 and 0.05 μM.
3. Experimental Steps • To the corresponding wells of the 384-well plate was added 2.5 μL of 4× test compound or 2.5 μL of 4% DMSO solution, and centrifugation was carried out at 1000 rpm for 30 seconds. • To the test compound well and positive control well was added 2.5 μL of 4× mixed solution of SHP2 enzyme/activating peptide while to the negative control well was added 2.5 μL of 1× enzymatic reaction buffer; centrifugation was carried out at 1000 rpm for 30 seconds and incubation was carried out at room temperature for 30 minutes. • To each well was added 5 μL of 2×DiFMUP substrate to initiate the enzymatic reaction, then the plate was transiently oscillated and centrifuged at 1000 rpm for 30 seconds, and the 384-well plate was sealed with a sealing membrane and incubated at 25° C. on a low-speed shaker (100 rpm) in the dark for 60 minutes. • The fluorescence value (relative fluorescence units, RFU) of each well was detected on EnVision2104 (excitation: 355 nm, emission: 460 nm).
wherein • the RFU of compound well refers to the fluorescence reading at 460 nm of the well containing the test compounds; • the RFU of negative control well refers to the fluorescence reading at 460 nm of the background well containing 1% DMSO and the enzymatic reaction buffer; • the RFU of positive control well refers to the fluorescence reading at 460 nm of the well containing 1% DMSO and the mixed solution of SHP2 enzyme/activating peptide.
as §1

SMILES	IC50 ([1]; Homo sapiens, MIA PaCa-2, 2 h) [nM]	IC50 [2] [nM]	IC50 ([1]; 2 hours) [nM]
COc1c(F)ccc(-n2c(C)nc(N3CCC4(CC3)Cc3ccc(C#CCN(C)C)cc3[C@H]4N)cc2=O)c1F [Compound 83]	57	1	
COCC#Cc1ccc2c(c1)[C@@H](N)C1(CCN(c3cnc(Sc4ccnc(N)c4Cl)c(N)n3)CC1)C2 [Compound 86]	6	2	
Cc1c(N2CCC3(CC2)Cc2ccc(C#CCN(C)C)cc2[C@H]3N)nc(C)n(-c2cccc(Cl)c2Cl)c1=O (atropisomer, axis not shown) [Compound 51]		1	21
CCNC(=O)C#Cc1ccc2c(c1)[C@@H](N)C1(CCN(c3ncc(N4CCCc5ncccc54)nc3C)CC1)C2 [Compound 258]	188	10	
Cc1nc(N2CCC3(CC2)Cc2ccc(C#CCOC(C)(C)C)cc2[C@H]3N)cc(=O)n1-c1cccc(Cl)c1Cl [Compound 31]	37	5	
C#Cc1ccc2c(c1)[C@@H](N)C1(CCN(c3cc(=O)n(-c4ccc(OCC)c(Cl)c4)c(C)n3)CC1)C2 [Compound 46]	648	96	
C#Cc1ccc2c(c1)[C@@H](N)C1(CCN(c3cc(=O)n(-c4ccc(F)c(F)c4Cl)c(C)n3)CC1)C2 (atropisomer, axis not shown) [Compound 113]		2	14
C#Cc1ccc2c(c1)[C@@H](N)C1(CCN(c3ncc(Sc4ccnc(N)n4)nc3CO)CC1)C2 [Compound 116]	1	0.5	
COCC#Cc1ccc2c(c1)[C@@H](N)C1(CCN(c3cc(=O)n(-c4ccc(C#N)cc4Cl)c(C)n3)CC1)C2 [Compound 93]	301	16	
C#Cc1cc(F)c2c(c1)[C@@H](N)C1(CCN(c3nc(C)n(-c4cccc(Cl)c4Cl)c(=O)c3F)CC1)C2 [Compound 167]	124	25	
C#Cc1ccc2c(c1)CC1(CCN(c3cc(=O)n(-c4cccc(Cl)c4Cl)c(C)n3)CC1)[C@@H]2N (atropisomer, axis not shown) [Compound 20]	52	12	
C#Cc1ccc2c(c1)[C@@H](N)C1(CCN(c3cc(=O)n(-c4cc(Cl)ccc4Cl)c(C)n3)CC1)C2 [Compound 73]	> 1000	253	
C#Cc1ccc2c(c1)[C@@H](N)C1(CCN(c3ncc(Sc4ccnc(N)n4)c4nccn34)CC1)C2 [Compound 27]	11	1	
CC#Cc1ccc2c(c1)[C@@H](N)C1(CCN(c3cnc(Sc4ccnc(N)c4Cl)nn3)CC1)C2 [Compound 234]	153	2.8	
CC#Cc1ccc2c(c1)[C@@H](N)C1(CCN(c3cnc(Sc4ccnc(N)n4)c(N)n3)CC1)C2 [Compound 134]	5	1.4	
COCC#Cc1ccc2c(c1)[C@@H](N)C1(CCN(c3cc(=O)n(-c4ccc(C#N)c(O)c4F)c(C)n3)CC1)C2 [Compound 186]	> 1000	42	
C#Cc1ccc2c(c1)CC1(CCN(c3ncc(Sc4ccnc(N)n4)c4nccn34)CC1)[C@@H]2N [Compound 9]	38	4	
COCCSc1ccc2c(c1)[C@@H](N)C1(CCN(c3cc(=O)n(-c4ccc(F)c(OC)c4F)c(C)n3)CC1)C2 [Compound 101]	96	12	

SMILES	IC50 ([1]; Homo sapiens, MIA PaCa-2, 2 h) [nM]	IC50 [2] [nM]	IC50 ([1]; 2 hours) [nM]
C#Cc1ccc2c(c1)[C@@H](N)C1(CCN(c3nc(C)n(-c4ccc(F)cc4Cl)c(=O)c3C)CC1)C2 [Compound 54]		3	36
CC#Cc1ccc2c(c1)[C@@H](N)C1(CCN(c3cc(=O)n(-c4cccc(Cl)c4Cl)c(C)n3)CC1)C2 [Compound 79]	60	1	
C#Cc1ccc2c(c1)[C@@H](N)C1(CCN(c3nc(C)c(Sc4ccnc(N)c4Cl)n4cncc34)CC1)C2 [Compound 180]	251	13	
Cc1nc(N2CCC3(CC2)Cc2ccc(C#CCN(C)C)cc2[C@H]3N)cc(=O)n1-c1ccc(F)c(Cl)c1Cl [Compound 70]	141	2	
C#Cc1ccc2c(c1)[C@@H](N)C1(CCN(c3cc(=O)n(-c4cccc(OCC)c4Cl)c(C)n3)CC1)C2 [Compound 62]	105	5	
C#Cc1ccc2c(c1)[C@@H](N)C1(CCN(c3ncc(Sc4ccnc(N)n4)c(N)n3)CC1)C2 [Compound 213]	447	68	
C#Cc1ccc2c(c1)[C@@H](N)C1(CCN(c3cc(=O)n(-c4ccccc4SC)c(C)n3)CC1)C2 [Compound 133]	147	29	
C#Cc1ccc2c(c1)[C@@H](N)C1(CCN(c3cc(=O)n(-c4cccc5[nH]ncc45)c(C)n3)CC1)C2 [Compound 39]	294	21	
C#Cc1ccc2c(c1)[C@@H](N)C1(CCN(c3ncc(-c4cn(C)c5ncccc45)c(=O)n3C)CC1)C2 [Compound 285]	962	85	
CC#Cc1ccc2c(c1)[C@@H](N)C1(CCN(c3cc(=O)n(-c4ccc(F)c(F)c4Cl)c(C)n3)CC1)C2 (atropisomer, axis not shown) [Compound 218]		104	944
C#Cc1ccc2c(c1)[C@@H](N)C1(CCN(c3cc(=O)n(-c4cc(OC)ccc4Cl)c(C)n3)CC1)C2 [Compound 44]	415	60	
C#Cc1ccc2c(c1)CC1(CCN(c3cnc(Sc4ccnc(N)c4Cl)c(N)n3)CC1)[C@@H]2N [Compound 2]	23	5	
C#Cc1ccc2c(c1)[C@@H](N)C1(CCN(c3nc(C)n(-c4cccc(Cl)c4Cl)c(=O)c3C)CC1)C2 (atropisomer, axis not shown) [Compound 48]		63	231
C#Cc1ccc2c(c1)[C@@H](N)C1(CCN(c3cc(=O)n(-c4ccccc4Cl)c(C)n3)CC1)C2 (single isomer, unassigned) [Compound 56]		2	85
Nc1nccc(Sc2cnc(N3CCC4(CC3)Cc3ccc(C#CCO)cc3[C@H]4N)n3ccnc23)c1Cl [Compound 76]	4	2	
COCC#Cc1ccc2c(c1)[C@@H](N)C1(CCN(c3cnc(Sc4ccnc(N)n4)c(N)n3)CC1)C2 [Compound 112]	6	2	
C#Cc1ccc2c(c1)CC1(CCN(c3ncc(Sc4ccnc(NC5CCC5)c4Cl)c4nccn34)CC1)[C@@H]2N [Compound 10]	220	35	
